Laboratory results as given in patent US20100189681A1, “Methods of Using Phosphoantigens Together with Interleukin-2 for the Treatment of Cancer” (INNATE PHARMA S.A., priority 2007, published 2010).
Entries after “also recorded” stand apart in the source; their conditions may differ.

Experiments:
[1] = Phase II clinical trial in B-NHL with rituximab, tolerance / toxicity; type: in vivo, human; details: B-NHL patients
Experimental: (§1) 5 patients suffering from B-NHL are treated with 4 MIU total in human daily (arm A, 3 patients), or 8 MIU total in human daily (arm B, 2 patients). The treatment regimen used for this study is set out in FIG. 4B.
(§2) Rituxan™ (rituximab) is administered at a dose of 375 mg/m^2, on day 0 and then on day 7, 14 and 21, which corresponds to the common Rituxan™ treatment. Phosphostim™ is administered once on day 7 which is the first day of treatment. IL-2 is administered daily subcutaneous (s.c.) from day 7 to day 11. On day 7, IL-2 is administered 10 minutes after the end of Phosphostim™ infusion.

γδ T cells [2] = test: Phase II clinical trial in B-NHL with rituximab, γδ T cell fold increase; type: in vivo, human; details: for γδ T cell fold increase as compared to pre-dose (mean): B-NHL, Phosphostim once day 7, rituximab 375 mg/m^2, measured day 0 and day 145
Experimental: as §1, §2
γδ T cell population is measured through cytometry on day 0 (before the beginning of the treatment) and on day 145 (corresponds to day 7 from the beginning of the Phosphostim™ treatment. The expansion of γδ T cell is obtained in fold increase compared to the basal γδ T cell count.

Vγ9Vδ2 T cells = test: IL-2 dose range with fixed dose of Phosphostim in cynomolgus macaque, Vγ9Vδ2 T cell expansion by flow cytometry; type: in vivo, cynomolgus monkeys (M. fascicularis); details: Phosphostim 48 mg/kg i.v. once, day 5 vs day 0
Experimental: As detailed in Example 2, a study has been set up on nonhuman primates (Cynomolgus macaques) to investigate the effect of the IL-2 dose on γδ T cell expansion in vivo, with a fixed dose of Phosphostim™ (48 mg/kg). Blood extracts have been dosed by flow cytometry on day 5 and the γδ T cell expansion has been expressed in expansion percentage compared to the basal γδ T cell count.
Follow up of Vγ9Vδ2 T cells in vivo in the macaque has been performed as usual by flow cytometry on days 0 (pre-dose) and 5 of treatment. […]
IL2: recombinant human IL2, Proleukin™, CHIRON; administered daily by subcutaneous (s.c.) route.
Phosphostim™ dose 48 mg/kg administered as 30-min infusion by intravenous (i.v.) route.
Twelve cynomolgus monkeys (M. fascicularis) aged 2.5 to 3.5 years at the start of the study. These animals were naïve of any previous treatment with phosphoantigens or IL2.
The animals have been allocated to 4 dose-groups (0.075, 0.3, 1.2 and 2.4 million UI per day for 7 days), with 3 animals per dose, receiving IL2 daily for 7 days have, and a fixed dose of Phosphostim™ 200 (48 mg/kg) once, on the first day of treatment, with 3 animals per dose.

[3] = Phase II clinical trial in mRCC, tolerance / toxicity; type: in vivo, human; details: mRCC patients
Experimental: (§3) A phase II clinical trial in mRCC was set up, to test the efficacy of a therapeutic regimen with a fixed dose of Phosphostim™ (750 mg/m^2, 50 ml infusion in 30 min) and two doses of IL-2.
(§4) Patients in Arm A were treated with an IL-2 dose of 2 MIU total daily (equivalent to approximately 1 MIU/m^2 daily). Patients in Arm B were treated with an IL-2 dose of 8 MIU total daily. For practical reasons, and as a human body surface varies from 1.5 to 2.1 m^2 depending on each variable of the patient, a single dose for all the patients of Arm B was fixed. It will be appreciated that when taking the variations in body surface into account, this 8 MIU total daily dose of IL-2 can also be expressed as a range from […] daily.
(§5) Patients suffering from mRCC were treated with a fixed dose of Phosphostim™ (750 mg/m^2, i.v. infusion of 30 min) and IL-2, at a dose of 2 MIU subcutaneous (s.c.) daily (arm A, 18 patients), or 8 MIU s.c. daily (arm B, 21 patients).
(§6) Phosphostim™ was administered once on day 1 which is the first day of treatment. IL-2 is administered daily s.c. from day 1 to day 5. On day 1, IL-2 is administered 10 minutes after the end of Phosphostim™ infusion.

total T cells = test: Phase II clinical trial in mRCC, total T cell fold increase day 7 vs pre-dose; type: in vivo, human; details: Phosphostim with IL-2 2 MIU or 8 MIU total daily (FIG. 3)
Experimental: (§7) FIG. 3 has been obtained from observations made during the clinical trial as described above. On day 7, cell subsets were determined and compared to the count made on day 0, before the treatment.
(§8) A specific pharmacological expansion of γδ T cell with Phosphostim™ was observed, and this expansion was related to dose of IL-2 administered. […] Moreover, despite an increased dose of IL-2 compared to previous publications, this expansion is still very specific to γδ T cells.

γδ T cells [4] = test: Phase I BrHPP dose escalation with IL-2 1 MU/m^2, γδ T cell amplification (FIG. 7); type: in vivo, human; details: BrHPP 100, 300, 600 and 900 MU/m^2 iv 30 min infusion day 1; IL-2 1 MU/m^2 daily for four days
Experimental: The first four columns (corresponding to 100, 300, 600 and 900 MU/m^2 doses of BrHPP) correspond to patients treated with BrHPP (iv, 30 min infusion on day 1) and IL-2 (1 MU/m^2 daily for four days starting on day 1) whereas the last two columns represent B-NHL patients who have been treated with 4 MIU total in human daily (arm A), or 8 MIU total in human daily (arm B), in the treatment setting described for FIG. 6.

γδ T cells [5] = test: Phase II clinical trial in mRCC, γδ T cell fold increase day 7 vs pre-dose (flow cytometry); type: in vivo, human
Experimental: Blood samples (4 ml) were withdrawn into EDTA containing tubes. Tubes were shipped overnight at room temperature (RT) before flow cytometry analyses.
Peripheral lymphocytes were analyzed by flow cytometry on total blood, after triple staining with anti-Vδ2FITC, anti-CD3PE and anti-CD25PC5 antibodies (Vδ2-FITC: IMMU389 clone, Immunotech-Beckman-Coulter, Marseilles, France; CD3-PE: UCHT1 clone, Immunotech-Beckman-Coulter; CD25PC5: M-A251 clone, Becton Dickinson, Le Pont de Claix, France).
Briefly, 100 μl patient blood was incubated 15 min at RT with 10 μl anti-Vdelta2-FITC, 10 μl anti-CD3-PE and 10 μl anti-CD25PC5 antibodies. Antibodies were washed with 3 ml 1×PBS, centrifuged for 4 min at 1300 rpm at RT and supernatant was discarded. Red cells were lysed with the OptiLyse B reagent (Immunotech-Beckman-Coulter, Marseilles, France) according to the manufacturer's instructions. At the final step, stained white blood cells were recovered by centrifugation and resuspended in 300 μl 1×PBS+0.2% PFA. Flow cytometry analysis on viable cells was performed on a FacsSCAN apparatus (Becton Dickinson) with the FacsDiva software.
as §3, §4, §5, §6
γδ T cell population was measured through cytometry on day 0 (before the beginning of the treatment) and on day 7. The expansion of γδ T cell was obtained in fold increase of expansion compared to the basal γδ T cell count.

NK cells = test: Phase II clinical trial in mRCC, NK cell fold increase day 7 vs pre-dose; type: in vivo, human; details: Phosphostim with IL-2 2 MIU or 8 MIU total daily (FIG. 3)
Experimental: as §7, §8

γδ T cells [6] = details: adults with multiple myeloma, intravenous 60-90 mg, within one to three weeks (Kunzmann, 1999); cited from earlier work
[7] = in vivo; cited from earlier work

3-(bromomethyl)-3-butanol-1-yl-diphosphate [Phosphostim™]
toxicity in Arm B compared to Arm A ([1]; IL-2 8 MIU vs 4 MIU total daily): no significant difference in toxicity
tolerance to the IL-2 dose administered with Phosphostim and rituximab ([1]; arm B IL-2 8 MIU total daily): good tolerance
γδ T cell fold increase as compared to pre-dose (mean) (γδ T cells [2]; arm A: IL-2 4 MIU total daily s.c. day 7-11, 3 patients): 17 fold
γδ T cell fold increase as compared to pre-dose (mean) (γδ T cells [2]; arm B: IL-2 8 MIU total daily s.c. day 7-11, 2 patients): 46 fold
γδ T cell amplification, higher IL-2 dose compared to lower dose (γδ T cells [2]; IL-2 8 MIU total daily vs lower IL-2 doses (FIGS. 6 and 7)): much better γδ T cell amplification
γδ T cell expansion (Vγ9Vδ2 T cells; IL-2 0.075 MIU/animal/day s.c. for 7 days): not sufficient to induce a γδT cell specific amplification; also recorded: no effect
γδ T cell expansion (Vγ9Vδ2 T cells; IL-2 0.3 MIU/animal/day s.c. for 7 days): specific and significant γδcell expansion; also recorded: weak γδT cell increase
γδ T cell expansion (Vγ9Vδ2 T cells; IL-2 1.2 MIU/animal/day s.c. for 7 days): the expansion is higher; also recorded: significantly higher increase; also recorded: a plateau is observed at this dose
γδ T cell expansion (Vγ9Vδ2 T cells; IL-2 2.4 MIU/animal/day s.c. for 7 days): the expansion is higher; also recorded: significantly higher increase; also recorded: does not trigger a better expansion than 1.2 MIU/animal/daily
toxicity in Arm B compared to Arm A ([3]; IL-2 8 MIU vs 2 MIU total daily with Phosphostim): none of the patients in arm B experienced an adverse toxicity effect; also recorded: no significant difference in toxicity
tolerance to the IL-2 dose administered with Phosphostim ([3]; arm B IL-2 8 MIU total daily): good tolerance
total T cell fold increase on day 7 as compared to pre-dose (total T cells): are not expanded; also recorded: nor a significant total T cell expansion
influence of the quantity of BrHPP on the γδ T cell amplification (γδ T cells [4]): slight influence
γδ T cell expansion, arm B compared to arm A (γδ T cells [5]; IL-2 8 MIU total daily vs 2 MIU total daily, fixed Phosphostim 750 mg/m^2): significantly better γδ T cell expansion; also recorded: significantly higher
γδ T cell fold increase on day 7 as compared to pre-dose (mean) (γδ T cells [5]; arm A: IL-2 2 MIU total daily s.c. day 1-5, Phosphostim 750 mg/m^2 i.v. day 1, 18 patients (FIG. 2)): 3 fold
γδ T cell fold increase on day 7 as compared to pre-dose (mean) (γδ T cells [5]; arm A: IL-2 2 MIU total daily, updated results, 29 patients (FIG. 5)): 2 fold
γδ T cell fold increase on day 7 as compared to pre-dose (mean) (γδ T cells [5]; arm B: IL-2 8 MIU total daily s.c. day 1-5, Phosphostim 750 mg/m^2 i.v. day 1, 21 patients (FIG. 2)): 12 fold
γδ T cell fold increase on day 7 as compared to pre-dose (mean) (γδ T cells [5]; arm B: IL-2 8 MIU total daily, updated results, 31 patients (FIG. 5)): 8 fold
NK cell fold increase on day 7 as compared to pre-dose (NK cells): are not expanded; also recorded: do not observe a significant NK cells expansion

NCCC(O)(P(=O)(O)O)P(=O)(O)O [pamidronate, 3-amino-1-hydroxypropane-1,1-diphosphonic acid]
circulating γδ T cells (γδ T cells [6]): increases of circulating γδ T cells

des-alanyl-1, serine-125-human interleukin-2 [IL-2]
toxicity grade reported [7]: grade III or IV toxicity
